The target of one assay is T1, PLK2 (Homo sapiens, UniProt Q9NYY3).
T1 construct: GST (N)
Kind of assay: PLK TR-FRET peptide assay (PLK2). The format is biochemical. The note with it: for selectivity relative to PLK1: compared to analogous compounds of WO 2011/079118; for activity with respect to PLK2: in vitro IC50 compared to analogous compounds of WO 2011/079118 (R1 methyl instead of fused ring). The procedure: (§1) Compounds as described herein (compounds of Formula I, e.g., compounds of the above Examples) are tested for their in vitro kinase activities using various PLK assays. An exemplary assay procedure is described below.
(§2) (1) Test compound solution preparation: prepare 4× compound solution in PLK assay buffer (50 mM HEPES, 10 mM MgCl2, 1 mM EGTA, 0.01% Tween-20, pH7.4). DTT is added to the buffer just before the experiment to a final concentration of 2 mM. Add 2.5 μl/well to a black 384-well low volume plate (4% DMSO at this step). (2) Kinase preparation: Prepare 2×GST-PLK 1, 2 or 3 (e.g., CarnaBio) solutions in assay buffer (6 nM for PLK1, 6 nM for PLK2 and 0.2 nM for PLK3). Add 5 μl/well, shake the plate, incubate the enzyme with compound at ret. Time for 15 min. (3) ATP/substrate mixture preparation: Prepare 4× (ATP/ULight-Topo Ha peptide substrate; e.g., Perkin Elmer) mixture in assay buffer (0.4 mM ATP/200 nM peptide). Add 2.5 μl/well, shake the plate and incubate at ret. Time. Reactions time: 60 min for PLK1, 60 min for PLK2 and 15 min for PLK3 (4) EDTA preparation: Dilute 0.5M EDTA to 24 mM with detection buffer. Add 5 μl/well to the plate, shake the plate well for 5 min. (5) Prepare 4× Eu-anti-P-Topo Ha (T1342) (e.g., Perkin Elmer) solution (8 nM) in detection buffer (50 Tris-HCl, 150 mM NaCl, 0.5% BSA, PH7.5). Add 5 μl/well to the plate, shake the plate and incubate at ret. Time for 1 h before reading on Envision at 665 nm/615 nm. The fluorescent signal as a function of compound concentration is used to determine the compound IC50.

Assay [1] concerns HEK-293 cells expressing α-synuclein and PLK2. Kind of assay: 293-Syn/PLK2 cell assay (ratio of p-Ser-129 α-synuclein to total synuclein, ELISA). In kind it is cell-based. The note with it: for IC50: Homo sapiens, HEK293, HEK-293 cells expressing α-synuclein and PLK2, ratio of phosphorylated synuclein to total synuclein; for cell activity: cellular IC50 compared to analogous compounds of WO 2011/079118. As to the method: Compounds as described herein (compounds of Formula I, e.g., compounds of the above Examples) are tested for their activity in HEK-293 cells expressing α-synuclein and PLK2. An exemplary assay procedure is described below.
(1) Plate HEK-293 cells stably transfected with α-synuclein in 10 cm dishes (Corning) at […] in 10% FCS/DMEM. (2) Transfect cells with PLK2 (PLK2-pCMV6 (Origene), at a concentration of 24 μg/dish and 72 μl Fugene6/dish (Roche)). (3) Trypsinize cells the following day and plate at 30,000 cells/well in PDL coated 96 well tissue culture plates (Becton Dickinson). (4) Starting with compounds at a concentration of 10 mM solutions, prepare five 1:3 serial dilutions in DMSO. (5) Dilute test and positive control compound DMSO stocks 1:100 into 10% FCS DMEM. (6) Change the cell media immediately prior to compound treatment, then add compound+DMEM to cells at 1:10 final dilution (final DMSO concentration is 0.1%). (7) After 2 hours, place the cells on ice, remove the media and the rinse cells once with cold phosphate buffered saline (PBS). Remove PBS and lyse the cells using a cell extraction buffer (CEB) (10 mM Tris, pH 7.4, 100 mM NaCl, 1 mM EDTA, 1 mM NaF, 1 mM EGTA, 20 mM Na4P2O7, 2 mM Na3VO4, 0.5% Deoxycholate, 1% TritonX-100, 10% Glycerol, 0.1% SDS) with added protease inhibitors (10 μg/ml leupeptin, 20 μg/ml aprotinin) (8) Freeze plates on dry ice and store at −80°.
Total and p-Ser-129 α-synuclein levels can be quantified with a sandwich ELISA (e.g., using 1H7 as the capture antibody and biotinylated 5C12 and 11A5 as the total and phospho synuclein reporter antibodies respectively; see e.g., J. Biol. Chem. 2006, 281:29739-29752, the disclosure of which is incorporated herein in its entirety). Alpha-synuclein phosphorylated at serine 129 (p-Ser-129 α-synuclein) levels are normalized to the total synuclein measured in each lysate and the ratio of phosphorylated synuclein to total synuclein as a function of compound concentration can be used to determine IC50 of the compounds.
Background: ELISA stands for enzyme-linked immunosorbent assay.

In a further assay the target is T2, PLK1 (Homo sapiens, UniProt P53350).
T2 construct: GST (N)
T2 sequence (P53350 whole entry): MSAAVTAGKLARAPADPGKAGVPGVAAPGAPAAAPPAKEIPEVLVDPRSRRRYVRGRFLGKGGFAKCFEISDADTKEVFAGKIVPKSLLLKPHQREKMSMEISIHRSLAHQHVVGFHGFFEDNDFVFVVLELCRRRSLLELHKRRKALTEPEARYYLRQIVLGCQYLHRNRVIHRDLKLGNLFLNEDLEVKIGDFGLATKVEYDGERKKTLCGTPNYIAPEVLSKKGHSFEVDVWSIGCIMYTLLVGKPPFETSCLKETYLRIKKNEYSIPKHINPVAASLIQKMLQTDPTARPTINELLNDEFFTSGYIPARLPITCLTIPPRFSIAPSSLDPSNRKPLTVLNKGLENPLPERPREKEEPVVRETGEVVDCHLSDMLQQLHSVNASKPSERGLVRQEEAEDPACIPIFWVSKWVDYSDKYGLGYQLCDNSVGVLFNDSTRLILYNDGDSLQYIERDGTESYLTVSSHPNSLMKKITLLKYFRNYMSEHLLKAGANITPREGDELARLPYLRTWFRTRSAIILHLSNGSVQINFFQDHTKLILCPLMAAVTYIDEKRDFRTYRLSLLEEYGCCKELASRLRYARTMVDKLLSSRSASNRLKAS
Kind of assay: PLK TR-FRET peptide assay (PLK1). In kind it is biochemical. The procedure: as §1, §2
On the technique in general: In TR-FRET formats the signal depends on donor and acceptor labels being close together.

Another assay addresses T3, PLK3 (Homo sapiens, UniProt Q9H4B4).
T3 construct: GST (N)
Kind of assay: PLK TR-FRET peptide assay (PLK3). The format is biochemical. The note with it: class symbols. As to the method: as §1, §2

Where [2] appears, read: comparison with analogous compounds of WO 2011/079118.
[3] abbreviates: PLK TR-FRET peptide assay, class symbols.

The structures appear in SMILES notation.

T1 sequence (Q9NYY3 whole entry): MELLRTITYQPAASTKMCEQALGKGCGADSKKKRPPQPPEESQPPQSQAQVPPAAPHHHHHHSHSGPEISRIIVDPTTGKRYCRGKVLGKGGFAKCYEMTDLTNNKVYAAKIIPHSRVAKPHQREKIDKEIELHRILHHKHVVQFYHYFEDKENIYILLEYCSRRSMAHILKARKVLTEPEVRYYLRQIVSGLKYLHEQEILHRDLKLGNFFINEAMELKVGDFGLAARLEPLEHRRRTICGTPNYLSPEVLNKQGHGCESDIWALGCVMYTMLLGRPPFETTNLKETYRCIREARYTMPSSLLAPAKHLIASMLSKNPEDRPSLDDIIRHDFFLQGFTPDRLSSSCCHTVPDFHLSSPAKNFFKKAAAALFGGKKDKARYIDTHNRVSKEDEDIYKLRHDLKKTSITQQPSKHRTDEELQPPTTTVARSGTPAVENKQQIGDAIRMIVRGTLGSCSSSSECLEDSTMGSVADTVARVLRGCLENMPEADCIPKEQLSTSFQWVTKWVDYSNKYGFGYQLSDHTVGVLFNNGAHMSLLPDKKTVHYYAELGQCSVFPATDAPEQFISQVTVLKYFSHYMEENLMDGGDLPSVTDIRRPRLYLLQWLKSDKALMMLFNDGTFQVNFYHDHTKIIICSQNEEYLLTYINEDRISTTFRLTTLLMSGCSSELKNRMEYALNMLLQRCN
T3 sequence (Q9H4B4 whole entry): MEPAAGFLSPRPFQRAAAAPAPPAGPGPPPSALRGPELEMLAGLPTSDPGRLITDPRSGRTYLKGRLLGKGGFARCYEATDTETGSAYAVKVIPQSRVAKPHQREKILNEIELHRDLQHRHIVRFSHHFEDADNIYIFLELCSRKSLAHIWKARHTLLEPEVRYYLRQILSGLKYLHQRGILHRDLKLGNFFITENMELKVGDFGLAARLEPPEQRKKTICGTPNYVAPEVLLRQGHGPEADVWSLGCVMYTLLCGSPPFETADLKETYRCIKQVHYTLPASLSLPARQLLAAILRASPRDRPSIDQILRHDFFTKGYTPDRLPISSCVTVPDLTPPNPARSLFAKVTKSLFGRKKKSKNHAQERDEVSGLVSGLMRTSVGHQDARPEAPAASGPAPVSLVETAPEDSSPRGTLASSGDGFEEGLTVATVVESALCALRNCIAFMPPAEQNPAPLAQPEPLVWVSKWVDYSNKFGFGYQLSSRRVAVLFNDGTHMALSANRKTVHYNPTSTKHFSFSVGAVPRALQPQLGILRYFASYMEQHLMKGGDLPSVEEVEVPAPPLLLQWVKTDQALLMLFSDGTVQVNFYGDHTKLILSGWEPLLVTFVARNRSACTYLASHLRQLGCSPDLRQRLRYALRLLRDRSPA

`CC[C@@H]1C(=O)N(C)c2cnc(-n3ccnc3-c3ccc(F)c(F)c3)nc2N1C1CCC1` [PCT Example 48, reference compound]: the values for the IC50 (against PLK2 (setting [2]); in assay [1]; at PLK1 (setting [2])) were 0.039 µM, 4.3 µM and 3.56 µM, respectively. On PLK2 (setting [2]), the “ratio Plk2 IC50 / Plk1 IC50 (selectivity relative to PLK1)” value turned out to be 0.011.

Turning to `CC[C@@H]1c2nncn2-c2cnc(-n3ccnc3-c3cccc(F)c3F)nc2N1C1CCC1` [Example 9, (R)-5-cyclobutyl-7-(2-(2,3-difluorophenyl)-1H-imidazol-1-yl)-4-ethyl-4,5-dihydro-[1,2,4]triazolo[4,3-f]pteridine], the IC50 (as a rule, the concentration at which inhibition is half-maximal) was 1 to 10 µM at PLK3, less than 1 µM on PLK2 (setting [3]) and less than 1 µM on PLK1 (setting [3]).

Take `CC[C@@H]1c2nncn2-c2cnc(-c3c[nH]nc3-c3nccs3)nc2N1C1CCC1` [Example 695, (R)-2-(4-(5-cyclobutyl-4-ethyl-4,5-dihydro-[1,2,4]triazolo[4,3-f]pteridin-7-yl)-1H-pyrazol-3-yl)thiazole]: the figures for the IC50 at PLK3, on PLK2 (setting [3]) and on PLK1 (setting [3]) were 1 to 10 µM, less than 1 µM and 1 to 10 µM, respectively.

As to `CC[C@@H]1c2nncn2-c2cnc(-n3ccnc3-c3ccc(F)cc3)nc2N1C1CCC1` [Example 7, (R)-5-Cyclobutyl-4-ethyl-7-(2-(4-fluorophenyl)-1H-imidazol-1-yl)-4,5-dihydro-[1,2,4]triazolo[4,3-f]pteridine], the IC50 was 10 to 50 µM at PLK3; less than 1 µM at PLK2 (setting [3]); 0.04 µM against PLK2 (setting [2]); 2.9 µM in assay [1]; 1 to 10 µM against PLK1 (setting [3]); 6.26 µM at PLK1 (setting [2]). Also, at PLK2, the “selectivity relative to PLK1” value is given as “comparable selectivity”. Further, the “ratio Plk2 IC50 / Plk1 IC50 (selectivity relative to PLK1)” value at PLK2 (setting [2]) is 0.0064. Besides, the “activity with respect to PLK2” value on PLK2 is “comparable activity”. Further, in assay [1], the cell activity result is recorded as “comparable cell activity”.

Turning to `CC[C@@H]1c2nncn2-c2cnc(-n3ccnc3-c3ccccc3F)nc2N1C1CCC1` [Example 5, (R)-5-cyclobutyl-4-ethyl-7-(2-(2-fluorophenyl)-1H-imidazol-1-yl)-4,5-dihydro-[1,2,4]triazolo[4,3-f]pteridine], the 50% inhibitory concentration (IC50) at PLK3 was 1 to 10 µM; on PLK2 (setting [3]), less than 1 µM; on PLK2 (setting [2]), 0.006 µM; in assay [1], 0.44 µM; against PLK1 (setting [3]) it was less than 1 µM; against PLK1 (setting [2]), 0.317 µM. Further, the “selectivity relative to PLK1” value on PLK2 is “comparable selectivity”. Also, on PLK2 (setting [2]), the “ratio Plk2 IC50 / Plk1 IC50 (selectivity relative to PLK1)” value stood at 0.019. Moreover, on PLK2, the “activity with respect to PLK2” value was “comparable activity”. Moreover, the cell activity entry in assay [1] was “comparable cell activity”.

Consider `CC[C@@H]1c2nncn2-c2cnc(-n3ccnc3-c3ccc(F)cc3F)nc2N1C1CCC1` [Example 11, (R)-5-Cyclobutyl-7-(2-(2,4-difluorophenyl)-1H-imidazol-1-yl)-4-ethyl-4,5-dihydro-[1,2,4]triazolo[4,3-f]pteridine], for which the values for the half-inhibitory concentration (IC50) against PLK3, at PLK2 (setting [3]) and at PLK1 (setting [3]) were 10 to 50 µM, less than 1 µM and 1 to 10 µM, respectively.

As to `CC[C@@H]1C(=O)N(C)c2cnc(-n3ccnc3-c3ccccc3)nc2N1C1CCC1` [PCT Example 47, reference compound], the results for the half-inhibitory concentration (IC50) (against PLK2 (setting [2]); in assay [1]; at PLK1 (setting [2])) were 0.007 µM, 0.67 µM and 0.194 µM, respectively. For the same compound, the “ratio Plk2 IC50 / Plk1 IC50 (selectivity relative to PLK1)” value on PLK2 (setting [2]) turned out to be 0.036.

In the case of `CC[C@@H]1c2nncn2-c2cnc(-n3ccnc3-c3ccccc3)nc2N1C1CCC1` [Example 3, (R)-5-Cyclobutyl-4-ethyl-7-(2-phenyl-1H-imidazol-1-yl)-4,5-dihydro-[1,2,4]triazolo[4,3-f]pteridine], the IC50 against PLK3 is 1 to 10 µM; against PLK2 (setting [3]) it was less than 1 µM; against PLK2 (setting [2]), 0.0085 µM; in assay [1] it was 0.42 µM; against PLK1 (setting [3]), less than 1 µM; against PLK1 (setting [2]), 0.441 µM. Also, at PLK2, the “selectivity relative to PLK1” value is “comparable selectivity”. For the same compound, the “ratio Plk2 IC50 / Plk1 IC50 (selectivity relative to PLK1)” value at PLK2 (setting [2]) worked out at 0.019. Besides, the “activity with respect to PLK2” value at PLK2 was “comparable activity”. Also, the cell activity result in assay [1] is on record as “comparable cell activity”.

With `CC[C@@H]1c2nncn2-c2cnc(-n3ccnc3-c3ccc(F)c(F)c3)nc2N1C1CCC1` [Example 1, (R)-5-Cyclobutyl-7-(2-(3,4-difluorophenyl)-1H-imidazol-1-yl)-4-ethyl-4,5-dihydro-[1,2,4]triazolo[4,3-f]pteridine], the IC50 against PLK3 was 10 to 50 µM; on PLK2 (setting [3]) it was less than 1 µM; against PLK2 (setting [2]), 0.092 µM; in assay [1], 4.4 µM; on PLK1 (setting [3]) it was 10 to 50 µM; against PLK1 (setting [2]), 14.6 µM. On PLK2, the “selectivity relative to PLK1” value is listed as “comparable selectivity”. On PLK2 (setting [2]), the “ratio Plk2 IC50 / Plk1 IC50 (selectivity relative to PLK1)” value is reported as 0.0063. In addition, the “activity with respect to PLK2” value on PLK2 is listed as “comparable activity”. Also, the cell activity result in assay [1] is “comparable cell activity”.

As for `CC[C@@H]1C(=O)N(C)c2cnc(-n3ccnc3-c3ccccc3F)nc2N1C1CCC1` [PCT Example 49, reference compound], the 50% inhibitory concentration (IC50) against PLK2 (setting [2]) worked out at 0.0045 µM; in assay [1], 0.42 µM; at PLK1 (setting [2]) it was 0.077 µM. Besides, at PLK2 (setting [2]), the “ratio Plk2 IC50 / Plk1 IC50 (selectivity relative to PLK1)” value turned out to be 0.058.

As for `CC[C@@H]1c2nncn2-c2cnc(-n3ccnc3-c3ccc(F)cc3)nc2N1C1CCC1` [PCT Example 50, reference compound], the half-inhibitory concentration (IC50) on PLK2 (setting [2]) is 0.02 µM; on PLK1 (setting [2]), 2.06 µM.
